This test addresses Tetracycline efflux protein TetA(B) (Escherichia coli). Kind of test: Inhibition of [3H]tetracycline uptake into everted membrane vesicles, prepared from tetracycline resistant Escherichia coli D1-209.
On to `CN(C)[C@@H]1C(=O)C(C(N)=O)C(=O)[C@@]2(O)C(=O)C3C(=O)c4c(O)cccc4[C@H](CSCCC(=O)O)C3[C@H](O)C12` (stereo not given in full) [3-(9-Carbamoyl-7-dimethylamino-1,6,8,10a,11-pentahydroxy-10,12-dioxo-5,5a,6,6a,7,10,10a,12-octahydro-naphthacen-5-ylmethylsulfanyl)-propionic acid], for which the IC50 was 43200 nM.
As for `CN(C)[C@@H]1C(=O)C(C(N)=O)C(=O)[C@@]2(O)C(=O)C3C(=O)c4c(O)cccc4[C@H](CS(=O)(=O)Cc4ccccc4)C3[C@H](O)C12` (stereo not given in full) [4-Dimethylamino-3,5,10,12,12a-pentahydroxy-1,11-dioxo-6-phenylmethanesulfonylmethyl-1,4,4a,5,5a,6,11,12a-octahydro-naphthacene-2-carboxylic acid amide], the figure is 1500 nM; as for `CN(C)[C@@H]1C(=O)C(C(N)=O)C(=O)[C@@]2(O)C(=O)C3C(=O)c4c(O)cccc4[C@H](CSc4ccccc4)C3[C@H](O)C12` (stereo not given in full) [4-Dimethylamino-3,5,10,12,12a-pentahydroxy-1,11-dioxo-6-phenylsulfanylmethyl-1,4,4a,5,5a,6,11,12a-octahydro-naphthacene-2-carboxylic acid amide], 6900 nM.
As for `COc1ccc(SC[C@H]2c3cccc(O)c3C(=O)C3C(=O)[C@]4(O)C(=O)C(C(N)=O)C(=O)[C@@H](N(C)C)C4[C@@H](O)C32)cc1` (stereo not given in full) [4-Dimethylamino-3,5,10,12,12a-pentahydroxy-6-(4-methoxy-phenylsulfanylmethyl)-1,11-dioxo-1,4,4a,5,5a,6,11,12a-octahydro-naphthacene-2-carboxylic acid amide], the figure is 1200 nM; as for `CSC[C@H]1c2cccc(O)c2C(=O)C2C(=O)[C@]3(O)C(=O)C(C(N)=O)C(=O)[C@@H](N(C)C)C3[C@@H](O)C21` (stereo not given in full) [4-Dimethylamino-3,5,10,12,12a-pentahydroxy-6-methylsulfanylmethyl-1,11-dioxo-1,4,4a,5,5a,6,11,12a-octahydro-naphthacene-2-carboxylic acid amide], 7900 nM.
As for `CN(C)[C@@H]1C(=O)C(C(N)=O)C(=O)[C@@]2(O)C(=O)C3C(=O)c4c(O)cccc4[C@H](CSCc4ccc(Cl)cc4)C3[C@H](O)C12` (stereo not given in full) [6-(4-Chloro-benzylsulfanylmethyl)-4-dimethylamino-3,5,10,12,12a-pentahydroxy-1,11-dioxo-1,4,4a,5,5a,6,11,12a-octahydro-naphthacene-2-carboxylic acid amide], the figure is 2100 nM; as for `CN(C)[C@@H]1C(=O)C(C(N)=O)C(=O)[C@@]2(O)C(=O)C3C(=O)c4c(O)cccc4[C@H](CSc4ccc(Cl)cc4)C3[C@H](O)C12` (stereo not given in full) [6-(4-Chloro-phenylsulfanylmethyl)-4-dimethylamino-3,5,10,12,12a-pentahydroxy-1,11-dioxo-1,4,4a,5,5a,6,11,12a-octahydro-naphthacene-2-carboxylic acid amide], 1600 nM.
`CCCCSC[C@H]1c2cccc(O)c2C(=O)C2C(=O)[C@]3(O)C(=O)C(C(N)=O)C(=O)[C@@H](N(C)C)C3[C@@H](O)C21` (stereo not given in full) [6-Butylsulfanylmethyl-4-dimethylamino-3,5,10,12,12a-pentahydroxy-1,11-dioxo-1,4,4a,5,5a,6,11,12a-octahydro-naphthacene-2-carboxylic acid amide]: the IC50 was 800 nM.
Then `CN(C)[C@@H]1C(=O)C(C(=O)NCN2CCOCC2)C(=O)[C@@]2(O)C(=O)C3C(=O)c4c(O)cccc4[C@H](CSC4CCCC4)C3[C@H](O)C12` (stereo not given in full) [6-Cyclopentylsulfanylmethyl-4-dimethylamino-3,5,10,12,12a-pentahydroxy-1,11-dioxo-1,4,4a,5,5a,6,11,12a-octahydro-naphthacene-2-carboxylic acid (morpholin-4-ylmethyl)-amide], with 1000 nM; and `CN(C)[C@@H]1C(=O)C(C(N)=O)C(=O)[C@@]2(O)C(=O)C3C(=O)c4c(O)cccc4[C@H](CSC(C)(C)C)C3[C@H](O)C12` (stereo not given in full) [6-tert-Butylsulfanylmethyl-4-dimethylamino-3,5,10,12,12a-pentahydroxy-1,11-dioxo-1,4,4a,5,5a,6,11,12a-octahydro-naphthacene-2-carboxylic acid amide], with 500 nM.

As a reminder, the IC50 is the concentration at which inhibition is half-maximal.

For the origin of these results see BindingDB's records for doi:10.1021/jm00055a008 (Tufts University, 1993).
